Data published in PubChem BioAssay (NCI).
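Growth conditions: 96-well plates. Treatment: test compound, 48 hours, 5 concentrations. Analysis: linear interpolation between bracketing concentrations; unreached endpoints set to highest concentration. GI50 = concentration required for 50% inhibition of growth. TGI: concentration producing complete growth inhibition.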

Assays:
Experiment in all cases: NCI-60 cell line screen, 48 h
SK-MEL-28 melanoma = test system: SK-MEL-28 melanoma
NCI/ADR-RES ovarian = test system: NCI/ADR-RES ovarian
RXF 393 renal = test system: RXF 393 renal
NCI-H460 lung = test system: NCI-H460 lung
UACC-62 melanoma = test system: UACC-62 melanoma
HT29 colon = test system: HT29 colon
CAKI-1 renal = test system: CAKI-1 renal
MCF7 breast = test system: MCF7 breast
COLO 205 colon = test system: COLO 205 colon
HOP-62 NSCLC = test system: HOP-62 NSCLC
IGROV1 ovarian = test system: IGROV1 ovarian
MALME-3M melanoma = test system: MALME-3M melanoma
SF-539 CNS = test system: SF-539 CNS
NCI-H522 lung = test system: NCI-H522 lung
RPMI-8226 leukemia = test system: RPMI-8226 leukemia
OVCAR-4 ovarian = test system: OVCAR-4 ovarian
T-47D breast = test system: T-47D breast
HL-60(TB) leukemia = test system: HL-60(TB) leukemia
HOP-92 NSCLC = test system: HOP-92 NSCLC
MOLT-4 leukemia = test system: MOLT-4 leukemia
BT-549 breast = test system: BT-549 breast
HCT-15 colon = test system: HCT-15 colon
M14 melanoma = test system: M14 melanoma
A498 renal = test system: A498 renal
EKVX NSCLC = test system: EKVX NSCLC
NCI-H23 lung = test system: NCI-H23 lung
NCI-H226 lung = test system: NCI-H226 lung
OVCAR-3 ovarian = test system: OVCAR-3 ovarian
SF-295 CNS = test system: SF-295 CNS
ACHN renal = test system: ACHN renal
SK-MEL-2 melanoma = test system: SK-MEL-2 melanoma
HCC-2998 colon = test system: HCC-2998 colon
A549 NSCLC = test system: A549 NSCLC
SK-OV-3 ovarian = test system: SK-OV-3 ovarian
UO-31 renal = test system: UO-31 renal
PC-3 prostate = test system: PC-3 prostate
SK-MEL-5 melanoma = test system: SK-MEL-5 melanoma
SF-268 CNS = test system: SF-268 CNS
SNB-75 CNS = test system: SNB-75 CNS
TK-10 renal = test system: TK-10 renal
K-562 leukemia = test system: K-562 leukemia
KM12 colon = test system: KM12 colon
MDA-MB-435 = test system: MDA-MB-435
UACC-257 melanoma = test system: UACC-257 melanoma
U251 CNS = test system: U251 CNS
SN12C renal = test system: SN12C renal
SNB-19 CNS = test system: SNB-19 CNS
SW-620 colon = test system: SW-620 colon
OVCAR-5 ovarian = test system: OVCAR-5 ovarian
786-0 renal = test system: 786-0 renal
HCT-116 colon = test system: HCT-116 colon
MDA-MB-231 breast = test system: MDA-MB-231 breast
OVCAR-8 ovarian = test system: OVCAR-8 ovarian
DU-145 prostate = test system: DU-145 prostate
SR leukemia = test system: SR leukemia
HS 578T breast = test system: HS 578T breast
LOX IMVI melanoma = test system: LOX IMVI melanoma
CCRF-CEM leukemia = test system: CCRF-CEM leukemia

COc1ccc(-c2ccc(/C=C/C(=O)NO)cc2)cc1
GI50 (SK-MEL-28 melanoma): 2450 nM
TGI (SK-MEL-28 melanoma): 13000 nM
GI50 (NCI/ADR-RES ovarian): 533 nM
TGI (NCI/ADR-RES ovarian): 3220 nM
GI50 (RXF 393 renal): 554 nM
TGI (RXF 393 renal): 3030 nM
GI50 (NCI-H460 lung): 142 nM
TGI (NCI-H460 lung): 4460 nM
GI50 (UACC-62 melanoma): 1150 nM
TGI (UACC-62 melanoma): 3430 nM
GI50 (HT29 colon): 3560 nM
TGI (HT29 colon): > 100000 nM
GI50 (CAKI-1 renal): 1420 nM
TGI (CAKI-1 renal): 6110 nM
GI50 (MCF7 breast): 639 nM
TGI (MCF7 breast): 19200 nM
GI50 (COLO 205 colon): 2340 nM
TGI (COLO 205 colon): 10100 nM
GI50 (HOP-62 NSCLC): 1310 nM
TGI (HOP-62 NSCLC): 3110 nM
GI50 (IGROV1 ovarian): 768 nM
TGI (IGROV1 ovarian): 9660 nM
GI50 (MALME-3M melanoma): 650 nM
TGI (MALME-3M melanoma): 11800 nM
GI50 (SF-539 CNS): 913 nM
TGI (SF-539 CNS): 5180 nM
GI50 (NCI-H522 lung): 801 nM
TGI (NCI-H522 lung): 16400 nM
GI50 (RPMI-8226 leukemia): 697 nM
TGI (RPMI-8226 leukemia): > 100000 nM
GI50 (OVCAR-4 ovarian): 362 nM
TGI (OVCAR-4 ovarian): 4440 nM
GI50 (T-47D breast): 1470 nM
TGI (T-47D breast): 5580 nM
GI50 (HL-60(TB) leukemia): 269 nM
GI50 (HOP-92 NSCLC): 1190 nM
TGI (HOP-92 NSCLC): 4980 nM
GI50 (MOLT-4 leukemia): 375 nM
GI50 (BT-549 breast): 1530 nM
TGI (BT-549 breast): 25900 nM
GI50 (HCT-15 colon): 468 nM
TGI (HCT-15 colon): 58700 nM
GI50 (M14 melanoma): 1450 nM
TGI (M14 melanoma): 7640 nM
GI50 (A498 renal): 1400 nM
TGI (A498 renal): 3760 nM
GI50 (EKVX NSCLC): 2230 nM
TGI (EKVX NSCLC): 12900 nM
GI50 (NCI-H23 lung): 1530 nM
TGI (NCI-H23 lung): 6180 nM
GI50 (NCI-H226 lung): 1090 nM
TGI (NCI-H226 lung): 4390 nM
GI50 (OVCAR-3 ovarian): 518 nM
TGI (OVCAR-3 ovarian): 2760 nM
GI50 (SF-295 CNS): 230 nM
TGI (SF-295 CNS): 2010 nM
GI50 (ACHN renal): 1070 nM
TGI (ACHN renal): 4480 nM
GI50 (SK-MEL-2 melanoma): 5110 nM
TGI (SK-MEL-2 melanoma): 37600 nM
GI50 (HCC-2998 colon): 662 nM
TGI (HCC-2998 colon): 7920 nM
GI50 (A549 NSCLC): 317 nM
TGI (A549 NSCLC): 6140 nM
GI50 (SK-OV-3 ovarian): 1180 nM
TGI (SK-OV-3 ovarian): 3210 nM
GI50 (UO-31 renal): 281 nM
TGI (UO-31 renal): 2140 nM
GI50 (PC-3 prostate): 1090 nM
TGI (PC-3 prostate): 12300 nM
GI50 (SK-MEL-5 melanoma): 1100 nM
TGI (SK-MEL-5 melanoma): 3000 nM
GI50 (SF-268 CNS): 982 nM
TGI (SF-268 CNS): 5580 nM
GI50 (SNB-75 CNS): 1380 nM
TGI (SNB-75 CNS): 5060 nM
GI50 (TK-10 renal): 1550 nM
TGI (TK-10 renal): 21300 nM
GI50 (K-562 leukemia): 2390 nM
TGI (K-562 leukemia): > 100000 nM
GI50 (KM12 colon): 1110 nM
TGI (KM12 colon): > 100000 nM
GI50 (MDA-MB-435): 2120 nM
TGI (MDA-MB-435): > 100000 nM
GI50 (UACC-257 melanoma): 2130 nM
TGI (UACC-257 melanoma): 13800 nM
GI50 (U251 CNS): 1140 nM
TGI (U251 CNS): 3080 nM
GI50 (SN12C renal): 864 nM
TGI (SN12C renal): 10900 nM
GI50 (SNB-19 CNS): 2420 nM
TGI (SNB-19 CNS): 11400 nM
GI50 (SW-620 colon): 754 nM
TGI (SW-620 colon): > 100000 nM
GI50 (OVCAR-5 ovarian): 1740 nM
TGI (OVCAR-5 ovarian): 17700 nM
GI50 (786-0 renal): 990 nM
TGI (786-0 renal): 3790 nM
GI50 (HCT-116 colon): 451 nM
TGI (HCT-116 colon): 11400 nM
GI50 (MDA-MB-231 breast): 1170 nM
TGI (MDA-MB-231 breast): 13400 nM
GI50 (OVCAR-8 ovarian): 896 nM
TGI (OVCAR-8 ovarian): 4620 nM
GI50 (DU-145 prostate): 394 nM
TGI (DU-145 prostate): 4450 nM
GI50 (SR leukemia): 378 nM
TGI (SR leukemia): > 20600 nM
GI50 (HS 578T breast): 3150 nM
TGI (HS 578T breast): 56300 nM
GI50 (LOX IMVI melanoma): 417 nM
TGI (LOX IMVI melanoma): 2610 nM
GI50 (CCRF-CEM leukemia): 48.1 nM
TGI (CCRF-CEM leukemia): > 100000 nM
